Paper PMC8401933 (Molecules, 2021)

What was measured:
Assay in all cases: KINOMEscan binding
Conditions in all cases: read-out: Percent Control
[1] = molecular target: T1, INSRR (Homo sapiens, UniProt P14616)
T1 construct: purchased Eurofins DiscoverX KINOMEscan

[2] = molecular target: T2, PKMYT1 (Homo sapiens, UniProt Q99640)
T2 construct: purchased Eurofins DiscoverX KINOMEscan

[3] = molecular target: T3, FLT3(K663Q) (Homo sapiens, UniProt P36888, K663Q)
T3 construct: purchased Eurofins DiscoverX KINOMEscan

[4] = molecular target: T4, DCAMKL1 (Homo sapiens, UniProt O15075)
T4 construct: purchased Eurofins DiscoverX KINOMEscan

[5] = molecular target: T5, DDR2 (Homo sapiens, UniProt Q16832)
T5 construct: purchased Eurofins DiscoverX KINOMEscan

[6] = molecular target: T6, TAOK2 (Homo sapiens, UniProt Q9UL54)
T6 construct: purchased Eurofins DiscoverX KINOMEscan

[7] = molecular target: T7, BUB1 (Homo sapiens, UniProt O43683)
T7 construct: purchased Eurofins DiscoverX KINOMEscan

[8] = molecular target: T8, NIM1 (Homo sapiens, UniProt Q8IY84)
T8 construct: purchased Eurofins DiscoverX KINOMEscan

[9] = molecular target: T9, PIP5K1A (Homo sapiens, UniProt Q99755)
T9 construct: purchased Eurofins DiscoverX KINOMEscan

[10] = molecular target: T10, CSNK1A1L (Homo sapiens, UniProt Q8N752)
T10 construct: purchased Eurofins DiscoverX KINOMEscan

[11] = molecular target: T11, JNK3 (Homo sapiens, UniProt P53779)
T11 construct: purchased Eurofins DiscoverX KINOMEscan

[12] = molecular target: T12, FLT3-autoinhibited (Homo sapiens, UniProt P36888)
T12 construct: purchased Eurofins DiscoverX KINOMEscan

[13] = molecular target: T13, TRPM6 (Homo sapiens, UniProt Q9BX84)
T13 construct: purchased Eurofins DiscoverX KINOMEscan

[14] = molecular target: T14, MAP3K4 (Homo sapiens, UniProt Q9Y6R4)
T14 construct: purchased Eurofins DiscoverX KINOMEscan

[15] = molecular target: T15, PAK3 (Homo sapiens, UniProt O75914)
T15 construct: purchased Eurofins DiscoverX KINOMEscan

[16] = molecular target: T16, KIT(V559D,T670I) (Homo sapiens, UniProt P10721, T670I/V559D)
T16 construct: purchased Eurofins DiscoverX KINOMEscan

[17] = molecular target: T17, PKN1 (Homo sapiens, UniProt Q16512)
T17 construct: purchased Eurofins DiscoverX KINOMEscan

[18] = molecular target: T18, RIPK5 (Homo sapiens, UniProt Q6XUX3)
T18 construct: purchased Eurofins DiscoverX KINOMEscan

[19] = molecular target: T19, MEK6 (Homo sapiens, UniProt P52564)
T19 construct: purchased Eurofins DiscoverX KINOMEscan

[20] = molecular target: T20, PDGFRA (Homo sapiens, UniProt P16234)
T20 construct: purchased Eurofins DiscoverX KINOMEscan

[21] = molecular target: T21, ERK8 (Homo sapiens, UniProt Q8TD08)
T21 construct: purchased Eurofins DiscoverX KINOMEscan

[22] = molecular target: T22, MAP3K2 (Homo sapiens, UniProt Q9Y2U5)
T22 construct: purchased Eurofins DiscoverX KINOMEscan

[23] = molecular target: T23, CDK11 (Homo sapiens, UniProt Q9BWU1)
T23 construct: purchased Eurofins DiscoverX KINOMEscan

[24] = molecular target: T24, PKAC-alpha (Homo sapiens, UniProt P17612)
T24 construct: purchased Eurofins DiscoverX KINOMEscan

[25] = molecular target: T25, VEGFR2 (Homo sapiens, UniProt P35968)
T25 construct: purchased Eurofins DiscoverX KINOMEscan

[26] = molecular target: T26, CDKL1 (Homo sapiens, UniProt Q00532)
T26 construct: purchased Eurofins DiscoverX KINOMEscan

[27] = molecular target: T27, STK36 (Homo sapiens, UniProt Q9NRP7)
T27 construct: purchased Eurofins DiscoverX KINOMEscan

[28] = molecular target: T28, PAK2 (Homo sapiens, UniProt Q13177)
T28 construct: purchased Eurofins DiscoverX KINOMEscan

[29] = molecular target: T29, EPHA4 (Homo sapiens, UniProt P54764)
T29 construct: purchased Eurofins DiscoverX KINOMEscan

[30] = molecular target: T30, HIPK2 (Homo sapiens, UniProt Q9H2X6)
T30 construct: purchased Eurofins DiscoverX KINOMEscan

[31] = molecular target: T31, CAMK1G (Homo sapiens, UniProt Q96NX5)
T31 construct: purchased Eurofins DiscoverX KINOMEscan

[32] = molecular target: T32, IKK-epsilon (Homo sapiens, UniProt Q14164)
T32 construct: purchased Eurofins DiscoverX KINOMEscan

[33] = molecular target: T33, DLK (Homo sapiens, UniProt Q12852)
T33 construct: purchased Eurofins DiscoverX KINOMEscan

[34] = molecular target: T34, KIT-autoinhibited (Homo sapiens, UniProt P10721)
T34 construct: purchased Eurofins DiscoverX KINOMEscan

[35] = molecular target: T35, ERK4 (Homo sapiens, UniProt P31152)
T35 construct: purchased Eurofins DiscoverX KINOMEscan

[36] = molecular target: T36, SRMS (Homo sapiens, UniProt Q9H3Y6)
T36 construct: purchased Eurofins DiscoverX KINOMEscan

[37] = molecular target: T37, ERN1 (Homo sapiens, UniProt O75460)
T37 construct: purchased Eurofins DiscoverX KINOMEscan

[38] = molecular target: T38, MARK4 (Homo sapiens, UniProt Q96L34)
T38 construct: purchased Eurofins DiscoverX KINOMEscan

[39] = molecular target: T39, DYRK1B (Homo sapiens, UniProt Q9Y463)
T39 construct: purchased Eurofins DiscoverX KINOMEscan

[40] = molecular target: T40, CSNK1G1 (Homo sapiens, UniProt Q9HCP0)
T40 construct: purchased Eurofins DiscoverX KINOMEscan

[41] = molecular target: T41, TRKB (Homo sapiens, UniProt Q16620)
T41 construct: purchased Eurofins DiscoverX KINOMEscan

[42] = molecular target: T42, MAP3K3 (Homo sapiens, UniProt Q99759)
T42 construct: purchased Eurofins DiscoverX KINOMEscan

[43] = molecular target: T43, MST3 (Homo sapiens, UniProt Q9Y6E0)
T43 construct: purchased Eurofins DiscoverX KINOMEscan

[44] = molecular target: T44, PIK3CG (Homo sapiens, UniProt P48736)
T44 construct: purchased Eurofins DiscoverX KINOMEscan

[45] = molecular target: T45, CAMK2A (Homo sapiens, UniProt Q9UQM7)
T45 construct: purchased Eurofins DiscoverX KINOMEscan

T28 sequence (Q13177 whole entry): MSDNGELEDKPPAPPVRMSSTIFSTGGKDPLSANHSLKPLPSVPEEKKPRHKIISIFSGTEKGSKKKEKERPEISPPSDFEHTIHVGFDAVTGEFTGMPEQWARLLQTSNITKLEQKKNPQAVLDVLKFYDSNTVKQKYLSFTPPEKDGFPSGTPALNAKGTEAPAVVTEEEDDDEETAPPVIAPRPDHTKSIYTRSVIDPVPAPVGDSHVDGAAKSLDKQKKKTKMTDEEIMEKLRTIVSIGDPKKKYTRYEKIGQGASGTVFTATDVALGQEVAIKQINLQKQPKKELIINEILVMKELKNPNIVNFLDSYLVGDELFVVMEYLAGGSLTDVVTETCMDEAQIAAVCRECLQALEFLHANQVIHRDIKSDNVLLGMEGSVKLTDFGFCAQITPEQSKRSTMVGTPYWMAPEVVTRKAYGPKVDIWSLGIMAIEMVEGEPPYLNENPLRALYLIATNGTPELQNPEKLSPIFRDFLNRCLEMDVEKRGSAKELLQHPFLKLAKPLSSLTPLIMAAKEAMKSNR
T7 sequence (O43683 whole entry): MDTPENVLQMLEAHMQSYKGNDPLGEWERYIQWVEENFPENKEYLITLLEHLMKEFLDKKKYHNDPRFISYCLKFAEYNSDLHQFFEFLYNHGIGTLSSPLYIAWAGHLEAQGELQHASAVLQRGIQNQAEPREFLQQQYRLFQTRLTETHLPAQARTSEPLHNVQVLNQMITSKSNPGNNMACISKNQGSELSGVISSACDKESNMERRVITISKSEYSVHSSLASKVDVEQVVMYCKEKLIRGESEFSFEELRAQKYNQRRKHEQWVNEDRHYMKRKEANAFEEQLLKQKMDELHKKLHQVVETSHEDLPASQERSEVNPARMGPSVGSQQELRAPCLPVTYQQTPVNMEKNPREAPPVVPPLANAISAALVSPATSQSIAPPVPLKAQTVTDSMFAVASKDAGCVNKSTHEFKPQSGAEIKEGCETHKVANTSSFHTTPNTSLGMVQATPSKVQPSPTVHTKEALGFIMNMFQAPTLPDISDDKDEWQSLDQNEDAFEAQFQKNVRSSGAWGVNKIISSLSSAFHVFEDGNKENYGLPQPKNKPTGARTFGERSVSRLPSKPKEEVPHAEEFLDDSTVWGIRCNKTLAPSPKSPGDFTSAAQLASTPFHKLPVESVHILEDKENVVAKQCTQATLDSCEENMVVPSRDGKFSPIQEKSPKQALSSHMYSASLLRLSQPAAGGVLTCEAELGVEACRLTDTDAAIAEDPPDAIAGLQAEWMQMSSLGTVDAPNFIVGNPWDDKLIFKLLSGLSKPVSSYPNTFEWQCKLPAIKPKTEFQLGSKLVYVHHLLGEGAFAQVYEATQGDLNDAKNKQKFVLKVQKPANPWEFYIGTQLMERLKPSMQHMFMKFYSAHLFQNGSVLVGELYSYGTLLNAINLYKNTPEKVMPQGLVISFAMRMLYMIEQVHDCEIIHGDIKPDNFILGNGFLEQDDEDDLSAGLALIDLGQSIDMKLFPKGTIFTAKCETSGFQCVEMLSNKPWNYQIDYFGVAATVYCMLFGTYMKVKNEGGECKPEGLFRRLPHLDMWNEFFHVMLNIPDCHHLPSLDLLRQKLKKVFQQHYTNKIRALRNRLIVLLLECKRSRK
T26 sequence (Q00532 whole entry): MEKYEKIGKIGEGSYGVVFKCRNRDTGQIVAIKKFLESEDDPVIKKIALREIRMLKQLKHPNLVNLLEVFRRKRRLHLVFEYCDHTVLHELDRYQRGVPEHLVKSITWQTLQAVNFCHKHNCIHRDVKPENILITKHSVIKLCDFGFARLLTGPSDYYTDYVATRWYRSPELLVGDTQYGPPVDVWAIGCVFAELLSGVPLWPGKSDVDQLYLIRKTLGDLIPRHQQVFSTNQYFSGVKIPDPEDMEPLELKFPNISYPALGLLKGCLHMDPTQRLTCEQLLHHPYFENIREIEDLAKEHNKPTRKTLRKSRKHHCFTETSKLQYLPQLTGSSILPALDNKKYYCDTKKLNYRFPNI
T37 sequence (O75460 19-977): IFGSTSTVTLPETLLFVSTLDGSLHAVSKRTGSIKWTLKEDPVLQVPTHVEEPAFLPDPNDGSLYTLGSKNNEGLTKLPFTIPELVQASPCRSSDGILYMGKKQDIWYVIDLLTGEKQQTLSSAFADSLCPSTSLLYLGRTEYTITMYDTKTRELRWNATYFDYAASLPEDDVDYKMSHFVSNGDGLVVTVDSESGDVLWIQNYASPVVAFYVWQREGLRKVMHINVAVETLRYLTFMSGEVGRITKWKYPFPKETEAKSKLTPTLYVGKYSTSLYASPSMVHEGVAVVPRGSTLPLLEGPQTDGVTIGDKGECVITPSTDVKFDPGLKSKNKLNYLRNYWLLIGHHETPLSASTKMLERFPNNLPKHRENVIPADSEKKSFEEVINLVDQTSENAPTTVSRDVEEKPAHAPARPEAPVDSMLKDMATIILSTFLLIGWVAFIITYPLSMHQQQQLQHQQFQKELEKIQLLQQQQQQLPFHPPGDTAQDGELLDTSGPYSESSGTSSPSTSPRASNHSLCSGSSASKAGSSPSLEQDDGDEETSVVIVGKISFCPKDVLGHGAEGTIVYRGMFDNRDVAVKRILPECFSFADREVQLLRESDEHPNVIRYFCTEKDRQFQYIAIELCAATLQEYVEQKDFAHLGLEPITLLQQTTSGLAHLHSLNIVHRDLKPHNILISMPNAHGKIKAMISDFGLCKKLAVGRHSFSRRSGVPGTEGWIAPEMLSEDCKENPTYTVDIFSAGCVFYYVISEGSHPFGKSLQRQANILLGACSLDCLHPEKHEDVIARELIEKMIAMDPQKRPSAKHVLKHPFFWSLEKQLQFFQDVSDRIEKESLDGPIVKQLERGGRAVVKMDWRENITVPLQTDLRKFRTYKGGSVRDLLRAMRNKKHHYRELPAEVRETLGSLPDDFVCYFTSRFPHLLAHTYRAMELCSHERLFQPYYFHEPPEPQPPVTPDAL
T33 sequence (Q12852 whole entry): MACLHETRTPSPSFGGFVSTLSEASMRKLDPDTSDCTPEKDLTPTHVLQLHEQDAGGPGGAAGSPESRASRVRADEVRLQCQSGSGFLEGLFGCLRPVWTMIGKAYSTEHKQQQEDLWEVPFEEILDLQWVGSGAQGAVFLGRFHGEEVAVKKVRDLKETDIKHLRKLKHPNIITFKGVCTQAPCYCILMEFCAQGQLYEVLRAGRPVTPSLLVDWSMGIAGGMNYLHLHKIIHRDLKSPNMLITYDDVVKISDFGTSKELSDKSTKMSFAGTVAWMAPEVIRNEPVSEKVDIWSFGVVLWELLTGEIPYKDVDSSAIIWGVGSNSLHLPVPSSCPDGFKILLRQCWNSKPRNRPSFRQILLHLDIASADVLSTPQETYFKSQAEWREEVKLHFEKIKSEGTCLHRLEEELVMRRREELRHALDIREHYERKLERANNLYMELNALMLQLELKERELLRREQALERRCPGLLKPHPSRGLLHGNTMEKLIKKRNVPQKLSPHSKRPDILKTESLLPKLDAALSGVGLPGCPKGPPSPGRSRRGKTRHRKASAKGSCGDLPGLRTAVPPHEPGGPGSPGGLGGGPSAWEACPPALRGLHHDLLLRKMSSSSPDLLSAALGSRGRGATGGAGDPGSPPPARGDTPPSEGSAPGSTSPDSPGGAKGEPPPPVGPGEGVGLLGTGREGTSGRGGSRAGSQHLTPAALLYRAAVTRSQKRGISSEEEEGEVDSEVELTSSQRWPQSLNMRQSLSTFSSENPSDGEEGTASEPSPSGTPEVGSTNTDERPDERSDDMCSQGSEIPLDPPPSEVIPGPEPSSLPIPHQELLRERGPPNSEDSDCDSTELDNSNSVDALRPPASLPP
T42 sequence (Q99759 whole entry): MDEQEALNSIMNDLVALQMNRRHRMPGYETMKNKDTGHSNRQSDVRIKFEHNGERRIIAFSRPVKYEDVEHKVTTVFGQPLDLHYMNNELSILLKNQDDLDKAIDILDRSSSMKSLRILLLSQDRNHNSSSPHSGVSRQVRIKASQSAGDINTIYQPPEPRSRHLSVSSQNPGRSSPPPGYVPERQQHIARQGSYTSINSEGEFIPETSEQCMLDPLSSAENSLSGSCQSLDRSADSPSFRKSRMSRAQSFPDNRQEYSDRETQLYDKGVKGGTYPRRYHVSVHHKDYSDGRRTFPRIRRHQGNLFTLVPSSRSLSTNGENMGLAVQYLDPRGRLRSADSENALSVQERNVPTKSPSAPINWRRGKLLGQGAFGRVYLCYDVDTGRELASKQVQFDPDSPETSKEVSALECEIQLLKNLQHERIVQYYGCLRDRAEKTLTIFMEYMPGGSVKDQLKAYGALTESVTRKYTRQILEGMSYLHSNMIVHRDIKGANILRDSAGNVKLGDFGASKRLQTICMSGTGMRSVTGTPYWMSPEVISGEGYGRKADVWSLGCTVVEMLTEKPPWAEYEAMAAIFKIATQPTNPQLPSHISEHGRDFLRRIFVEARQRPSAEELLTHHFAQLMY
T21 sequence (Q8TD08 whole entry): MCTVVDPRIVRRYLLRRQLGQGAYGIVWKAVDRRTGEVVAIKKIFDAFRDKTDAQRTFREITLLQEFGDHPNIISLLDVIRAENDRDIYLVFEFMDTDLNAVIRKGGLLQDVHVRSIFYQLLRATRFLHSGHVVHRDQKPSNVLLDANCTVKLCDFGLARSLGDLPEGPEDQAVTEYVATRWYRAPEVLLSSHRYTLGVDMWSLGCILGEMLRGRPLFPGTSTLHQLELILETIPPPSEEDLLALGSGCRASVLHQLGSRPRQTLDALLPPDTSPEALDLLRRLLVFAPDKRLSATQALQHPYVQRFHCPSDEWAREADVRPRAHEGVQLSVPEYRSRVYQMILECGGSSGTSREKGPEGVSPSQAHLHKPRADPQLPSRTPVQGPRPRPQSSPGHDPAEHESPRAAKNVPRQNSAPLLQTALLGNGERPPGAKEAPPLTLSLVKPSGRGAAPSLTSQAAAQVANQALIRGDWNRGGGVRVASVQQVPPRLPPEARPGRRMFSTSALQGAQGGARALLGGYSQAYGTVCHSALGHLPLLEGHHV

## CC(C)NC(=O)COc1cccc(-c2nc(Nc3ccc4[nH]ncc4c3)c3ccccc3n2)c1 [KD025, 2-(3-(4-((1H-indazol-5-yl)amino)quinazolin-2-yl)phenoxy)-N-isopropylacetamide]
[1]
  remaining binding at 10 µM: 83%
[2]
  remaining binding at 10 µM: 83%
[3]
  remaining binding at 10 µM: 55%
[4]
  remaining binding at 10 µM: 79%
[5]
  remaining binding at 10 µM: 45%
[6]
  remaining binding at 10 µM: 83%
[7]
  remaining binding at 10 µM: 69%
[8]
  remaining binding at 10 µM: 100%
[9]
  remaining binding at 10 µM: 6%
[10]
  remaining binding at 10 µM: 89%
[11]
  remaining binding at 10 µM: 78%
[12]
  remaining binding at 10 µM: 71%
[13]
  remaining binding at 10 µM: 93%
[14]
  remaining binding at 10 µM: 83%
[15]
  remaining binding at 10 µM: 77%
[16]
  remaining binding at 10 µM: 98%
[17]
  remaining binding at 10 µM: 97%
[18]
  remaining binding at 10 µM: 64%
[19]
  remaining binding at 10 µM: 87%
[20]
  remaining binding at 10 µM: 80%
[21]
  remaining binding at 10 µM: 93%
[22]
  remaining binding at 10 µM: 95%
[23]
  remaining binding at 10 µM: 99%
[24]
  remaining binding at 10 µM: 100%
[25]
  remaining binding at 10 µM: 76%
[26]
  remaining binding at 10 µM: 56%
[27]
  remaining binding at 10 µM: 91%
[28]
  remaining binding at 10 µM: 79%
[29]
  remaining binding at 10 µM: 93%
[30]
  remaining binding at 10 µM: 100%
[31]
  remaining binding at 10 µM: 88%
[32]
  remaining binding at 10 µM: 70%
[33]
  remaining binding at 10 µM: 58%
[34]
  remaining binding at 10 µM: 78%
[35]
  remaining binding at 10 µM: 100%
[36]
  remaining binding at 10 µM: 70%
[37]
  remaining binding at 10 µM: 98%
[38]
  remaining binding at 10 µM: 66%
[39]
  remaining binding at 10 µM: 64%
[40]
  remaining binding at 10 µM: 70%
[41]
  remaining binding at 10 µM: 98%
[42]
  remaining binding at 10 µM: 80%
[43]
  remaining binding at 10 µM: 72%
[44]
  remaining binding at 10 µM: 82%
[45]
  remaining binding at 10 µM: 87%
